Reference: ChEMBL document CHEMBL3774343, “Discovery of CREBBP Bromodomain Inhibitors by High-Throughput Docking and Hit Optimization Guided by Molecular Dynamics” (J Med Chem, 2016)
Peptide text beside a SMILES is read from it.

How the values were obtained:
CREB-binding protein [1] = target: T1, CREB-binding protein (Homo sapiens, UniProt Q92793); test: Binding affinity to human CREBBP at 100 uM by thermal shift assay
Target sequence in this assay (Q92793 2-2442 limits assumed): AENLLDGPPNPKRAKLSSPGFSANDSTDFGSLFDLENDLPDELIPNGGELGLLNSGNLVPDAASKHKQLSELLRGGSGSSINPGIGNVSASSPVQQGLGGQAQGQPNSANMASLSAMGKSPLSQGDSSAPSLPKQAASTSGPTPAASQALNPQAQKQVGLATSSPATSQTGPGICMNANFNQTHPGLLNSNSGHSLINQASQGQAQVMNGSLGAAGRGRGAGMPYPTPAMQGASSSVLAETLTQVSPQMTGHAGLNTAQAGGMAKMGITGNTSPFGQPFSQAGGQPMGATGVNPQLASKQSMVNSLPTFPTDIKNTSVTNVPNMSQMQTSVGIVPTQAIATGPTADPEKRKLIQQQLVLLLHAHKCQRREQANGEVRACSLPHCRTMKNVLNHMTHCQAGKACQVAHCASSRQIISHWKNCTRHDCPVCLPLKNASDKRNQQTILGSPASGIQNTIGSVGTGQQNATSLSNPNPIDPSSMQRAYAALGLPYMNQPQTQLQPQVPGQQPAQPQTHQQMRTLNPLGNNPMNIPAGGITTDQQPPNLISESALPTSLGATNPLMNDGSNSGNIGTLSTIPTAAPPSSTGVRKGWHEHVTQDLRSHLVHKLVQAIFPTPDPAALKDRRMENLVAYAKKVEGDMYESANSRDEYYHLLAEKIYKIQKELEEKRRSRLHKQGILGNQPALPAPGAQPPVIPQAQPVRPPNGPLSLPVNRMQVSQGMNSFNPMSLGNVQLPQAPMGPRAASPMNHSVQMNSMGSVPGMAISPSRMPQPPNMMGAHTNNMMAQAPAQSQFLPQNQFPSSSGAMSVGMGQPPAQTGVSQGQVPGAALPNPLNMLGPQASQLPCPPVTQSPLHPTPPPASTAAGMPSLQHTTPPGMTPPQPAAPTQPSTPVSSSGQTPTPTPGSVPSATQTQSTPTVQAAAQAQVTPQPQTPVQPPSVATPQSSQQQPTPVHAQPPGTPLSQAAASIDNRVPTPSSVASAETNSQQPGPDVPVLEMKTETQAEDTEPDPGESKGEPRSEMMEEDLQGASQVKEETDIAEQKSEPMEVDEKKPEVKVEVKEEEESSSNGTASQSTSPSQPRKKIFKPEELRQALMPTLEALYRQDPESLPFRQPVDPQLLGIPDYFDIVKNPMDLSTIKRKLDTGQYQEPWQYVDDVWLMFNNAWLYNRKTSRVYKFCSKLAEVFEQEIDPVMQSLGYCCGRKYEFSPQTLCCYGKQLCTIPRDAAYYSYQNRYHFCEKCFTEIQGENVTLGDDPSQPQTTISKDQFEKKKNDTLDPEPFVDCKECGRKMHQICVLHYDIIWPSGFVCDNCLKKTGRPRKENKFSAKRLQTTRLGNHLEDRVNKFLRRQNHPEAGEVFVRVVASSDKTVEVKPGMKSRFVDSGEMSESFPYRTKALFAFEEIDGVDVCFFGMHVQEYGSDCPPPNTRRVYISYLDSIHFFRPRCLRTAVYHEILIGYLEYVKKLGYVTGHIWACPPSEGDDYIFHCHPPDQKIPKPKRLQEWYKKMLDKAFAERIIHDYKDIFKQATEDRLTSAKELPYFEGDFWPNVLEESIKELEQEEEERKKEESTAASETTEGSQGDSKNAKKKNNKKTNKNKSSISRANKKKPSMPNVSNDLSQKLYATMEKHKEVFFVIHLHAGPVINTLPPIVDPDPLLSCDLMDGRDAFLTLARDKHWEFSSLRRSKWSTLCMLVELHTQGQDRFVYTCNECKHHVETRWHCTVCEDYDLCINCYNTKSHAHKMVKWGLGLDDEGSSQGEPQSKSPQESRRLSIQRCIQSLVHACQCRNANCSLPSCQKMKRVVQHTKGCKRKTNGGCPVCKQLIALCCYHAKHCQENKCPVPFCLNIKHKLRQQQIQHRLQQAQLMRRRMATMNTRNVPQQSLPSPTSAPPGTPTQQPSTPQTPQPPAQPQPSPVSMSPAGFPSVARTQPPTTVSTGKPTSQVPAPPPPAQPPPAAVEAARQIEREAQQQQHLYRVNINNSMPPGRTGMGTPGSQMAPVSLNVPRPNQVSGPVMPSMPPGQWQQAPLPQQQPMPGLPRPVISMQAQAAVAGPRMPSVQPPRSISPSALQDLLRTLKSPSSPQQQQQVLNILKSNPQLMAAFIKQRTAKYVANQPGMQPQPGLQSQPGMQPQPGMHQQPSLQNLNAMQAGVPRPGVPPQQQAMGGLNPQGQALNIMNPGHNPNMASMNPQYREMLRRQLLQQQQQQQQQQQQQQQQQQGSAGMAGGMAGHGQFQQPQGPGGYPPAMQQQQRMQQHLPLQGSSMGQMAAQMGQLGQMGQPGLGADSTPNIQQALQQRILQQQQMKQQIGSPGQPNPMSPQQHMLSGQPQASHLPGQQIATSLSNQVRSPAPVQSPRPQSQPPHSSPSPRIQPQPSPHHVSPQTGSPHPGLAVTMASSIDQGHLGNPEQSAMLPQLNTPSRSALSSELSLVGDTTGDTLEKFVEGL

CREB-binding protein [2] = target: T1, CREB-binding protein; test: Binding affinity to N-terminal GST-tagged recombinant human CREBBP expressed in Escherichia coli after 2 hrs using BET bromodomain ligand by TR-FRET assay
Target sequence in this assay (Q92793 whole entry): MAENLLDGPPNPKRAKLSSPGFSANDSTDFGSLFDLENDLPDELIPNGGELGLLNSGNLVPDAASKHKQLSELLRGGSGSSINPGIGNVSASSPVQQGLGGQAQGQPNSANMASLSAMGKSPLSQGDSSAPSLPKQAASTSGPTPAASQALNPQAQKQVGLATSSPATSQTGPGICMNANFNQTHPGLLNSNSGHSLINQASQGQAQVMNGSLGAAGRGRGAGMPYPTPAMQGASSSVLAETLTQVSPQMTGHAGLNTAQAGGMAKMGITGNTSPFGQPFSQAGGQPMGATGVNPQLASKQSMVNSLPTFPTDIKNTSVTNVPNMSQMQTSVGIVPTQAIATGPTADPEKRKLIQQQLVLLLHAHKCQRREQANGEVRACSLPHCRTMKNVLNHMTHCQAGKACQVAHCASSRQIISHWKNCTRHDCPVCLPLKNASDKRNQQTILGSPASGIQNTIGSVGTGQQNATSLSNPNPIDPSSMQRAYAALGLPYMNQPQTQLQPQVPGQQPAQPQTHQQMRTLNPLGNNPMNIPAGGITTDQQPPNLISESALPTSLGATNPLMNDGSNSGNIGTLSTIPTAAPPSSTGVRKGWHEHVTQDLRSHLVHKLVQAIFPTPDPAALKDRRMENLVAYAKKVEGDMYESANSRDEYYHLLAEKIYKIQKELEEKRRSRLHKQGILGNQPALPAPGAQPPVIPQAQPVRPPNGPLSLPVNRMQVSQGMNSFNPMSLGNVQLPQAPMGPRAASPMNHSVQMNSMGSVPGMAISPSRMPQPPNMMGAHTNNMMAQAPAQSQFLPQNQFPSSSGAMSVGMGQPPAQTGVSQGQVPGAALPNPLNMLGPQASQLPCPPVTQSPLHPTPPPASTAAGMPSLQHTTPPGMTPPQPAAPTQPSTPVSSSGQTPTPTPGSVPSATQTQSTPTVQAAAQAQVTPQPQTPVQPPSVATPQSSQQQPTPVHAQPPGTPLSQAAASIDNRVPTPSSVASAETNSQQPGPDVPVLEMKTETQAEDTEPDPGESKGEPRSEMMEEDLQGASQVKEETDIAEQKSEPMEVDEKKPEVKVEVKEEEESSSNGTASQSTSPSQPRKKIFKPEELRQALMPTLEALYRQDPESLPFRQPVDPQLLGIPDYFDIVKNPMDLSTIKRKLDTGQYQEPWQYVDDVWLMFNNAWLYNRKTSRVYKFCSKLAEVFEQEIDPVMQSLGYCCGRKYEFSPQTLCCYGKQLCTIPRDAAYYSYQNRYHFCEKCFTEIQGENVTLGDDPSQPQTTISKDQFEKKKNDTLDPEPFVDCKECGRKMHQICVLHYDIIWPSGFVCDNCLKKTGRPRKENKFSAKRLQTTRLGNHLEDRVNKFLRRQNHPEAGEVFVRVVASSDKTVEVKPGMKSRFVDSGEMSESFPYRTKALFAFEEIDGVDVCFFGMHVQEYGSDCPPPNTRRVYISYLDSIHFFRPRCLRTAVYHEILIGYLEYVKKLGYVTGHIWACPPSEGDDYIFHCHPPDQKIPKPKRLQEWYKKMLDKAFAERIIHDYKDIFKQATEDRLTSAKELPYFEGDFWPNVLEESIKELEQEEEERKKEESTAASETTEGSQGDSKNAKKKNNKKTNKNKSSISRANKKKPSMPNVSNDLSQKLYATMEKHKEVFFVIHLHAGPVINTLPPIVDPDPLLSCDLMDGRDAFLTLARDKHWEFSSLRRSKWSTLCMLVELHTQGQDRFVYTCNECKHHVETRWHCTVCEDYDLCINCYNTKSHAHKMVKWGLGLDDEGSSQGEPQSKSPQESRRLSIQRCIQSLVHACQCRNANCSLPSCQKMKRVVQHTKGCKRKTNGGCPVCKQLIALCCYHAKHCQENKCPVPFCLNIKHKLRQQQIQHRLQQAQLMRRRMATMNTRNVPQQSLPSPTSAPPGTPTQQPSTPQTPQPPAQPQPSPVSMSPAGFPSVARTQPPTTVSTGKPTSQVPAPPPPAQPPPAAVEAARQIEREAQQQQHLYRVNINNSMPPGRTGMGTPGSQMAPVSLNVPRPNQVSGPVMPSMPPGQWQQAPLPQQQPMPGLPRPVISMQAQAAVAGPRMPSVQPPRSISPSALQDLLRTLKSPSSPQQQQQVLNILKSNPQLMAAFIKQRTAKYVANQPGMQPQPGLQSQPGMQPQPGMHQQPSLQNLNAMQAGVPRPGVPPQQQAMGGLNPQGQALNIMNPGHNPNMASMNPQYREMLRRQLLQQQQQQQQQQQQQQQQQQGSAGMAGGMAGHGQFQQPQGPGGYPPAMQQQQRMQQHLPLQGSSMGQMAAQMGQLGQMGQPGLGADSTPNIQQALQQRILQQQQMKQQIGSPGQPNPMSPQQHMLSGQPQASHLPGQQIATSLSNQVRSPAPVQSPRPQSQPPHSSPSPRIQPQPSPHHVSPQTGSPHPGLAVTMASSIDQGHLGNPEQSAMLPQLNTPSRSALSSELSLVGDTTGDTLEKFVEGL

CREB-binding protein [3] = target: T1, CREB-binding protein; test: Binding affinity to CREBBP (unknown origin) by fluorescence polarization assay
Target sequence in this assay (Q92793 whole entry): as above

CREB-binding protein [4] = target: T1, CREB-binding protein; test: Competitive binding affinity to partial length human CREBBP expressed in Escherichia coli BL21 after 1 hr by BROMOscan assay
Target sequence in this assay (Q92793 whole entry): as above

CREB-binding protein [5] = target: T1, CREB-binding protein; test: Competitive binding affinity to partial length human CREBBP expressed in Escherichia coli BL21 at 50 uM after 1 hr by BROMOscan assay relative to control
Target sequence in this assay (Q92793 2-2442 limits assumed): as the sequence (Q92793 2-2442 limits assumed) above

Homo sapiens = species on record: Homo sapiens; test: Selectivity ratio of Kd for BRD4 bromodomain 1 (unknown origin) to Kd for partial length human CREBBP expressed in Escherichia coli BL21

ΔTm (CREB-binding protein [1]) [°C]	IC50 (CREB-binding protein [2]) [µM]	Activity (CREB-binding protein [5]) [%]	Structure (SMILES)	further results
1.4	> 10	–	CC(=O)c1c(C)[nH]c(C(=O)Nc2cc(C(=O)O)ccc2C)c1C	–
–	–	–	CC(=O)NCCCC[C@@H]1NC(=O)[C@H](CCCCN)NC(=O)[C@H](Cc2c[nH]c3ccccc23)NC(=O)[C@@H](NC(C)=O)CSSC[C@@H](C(=O)N[C@@H](Cc2ccccc2)C(=O)N[C@@H](CCCCN)C(N)=O)NC(=O)[C@H](CC(C)C)NC1=O (HELM PEPTIDE1{[ac].C.W.K.K.L.C.F.K.[am]}|PEPTIDE2{[ac]}$PEPTIDE1,PEPTIDE2,5:R3-1:R2|PEPTIDE1,PEPTIDE1,2:R3-7:R3$$$V2.0)	IC50 (CREB-binding protein [3]): 5 µM
0.3	> 100	9	CC(=O)c1c(C)[nH]c(C(=O)Nc2cc(-c3nnco3)ccc2C)c1C	Kd (CREB-binding protein [4]): 13 µM
–	–	20	COC(=O)c1ccc(C)c(NC(=O)c2[nH]c(C)c(C(C)=O)c2C)c1	–
–	–	–	CCOc1ccc(C(C)=O)cc1NC(=O)c1cccc(C(=O)O)c1	Ratio (Homo sapiens): > 65
0.3	–	3	CCCc1c(C(=O)NCc2c(C)cc(C)[nH]c2=O)[nH]c(C)c1C(C)=O	–
1.3	–	5	CCn1cnnc1CNC(=O)c1[nH]c(C)c(C(C)=O)c1C	–
2.3	1.5	–	CC(=O)c1c(C)[nH]c(C(=O)Nc2cccc(C(=O)O)c2)c1C	Kd (CREB-binding protein [4]): 4.2 µM
